{"source": "ChEMBL document CHEMBL4831516", "about": "“Development of Membrane-Active Honokiol/Magnolol Amphiphiles as Potent Antibacterial Agents against Methicillin-Resistant Staphylococcus aureus (MRSA)” (J Med Chem, 2021)", "key": {"Enterococcus faecalis": {"tested_on": "Enterococcus faecalis", "assay": "Antibacterial activity against Enterococcus faecalis ATCC29212 assessed as inhibition of visible growth incubated for 16 to 18 hrs by CLSI method", "format": "functional", "conditions": "time 16-18 hrs, read-out: MIC100"}, "Bacillus subtilis": {"tested_on": "Bacillus subtilis", "assay": "Antibacterial activity against Bacillus subtilis assessed as inhibition of visible growth incubated for 16 to 18 hrs by CLSI method", "format": "functional", "conditions": "time 16-18 hrs, read-out: MIC100"}, "Micrococcus luteus": {"tested_on": "Micrococcus luteus", "assay": "Antibacterial activity against Micrococcus luteus assessed as inhibition of visible growth incubated for 16 to 18 hrs by CLSI method", "format": "functional", "conditions": "time 16-18 hrs, read-out: MIC100"}, "Escherichia coli": {"tested_on": "Escherichia coli", "assay": "Antibacterial activity against Escherichia coli ATCC25922 assessed as inhibition of visible growth incubated for 16 to 18 hrs by CLSI method", "format": "functional", "conditions": "time 16-18 hrs, read-out: MIC100"}, "[1]": {"tested_on": "Stenotrophomonas maltophilia", "assay": "Antibacterial activity against Stenotrophomonas maltophilia assessed as inhibition of visible growth incubated for 16 to 18 hrs by CLSI method", "format": "functional", "conditions": "time 16-18 hrs, read-out: MIC100"}, "Salmonella enterica [2]": {"tested_on": "Salmonella enterica", "assay": "Antibacterial activity against Salmonella enterica 349812 assessed as inhibition of visible growth incubated for 16 to 18 hrs by CLSI method", "format": "functional", "conditions": "time 16-18 hrs, read-out: MIC100"}, "Salmonella enterica [3]": {"tested_on": "Salmonella enterica", "assay": "Antibacterial activity against Salmonella enterica 8389 assessed as inhibition of visible growth incubated for 16 to 18 hrs by CLSI method", "format": "functional", "conditions": "time 16-18 hrs, read-out: MIC100"}, "[4]": {"assay": "Hemolytic activity in sheep RBC assessed as hemolysis incubated for 1 hr", "format": "ADME, cell-based, Ovis aries, Erythrocyte", "conditions": "sheep red blood cells (erythrocytes)"}, "[5]": {"assay": "Selectivity index, HC50 for hemolytic activity in sheep RBC to MIC for antibacterial activity against Staphylococcus aureus ATCC29213", "format": "toxicity", "conditions": "sheep red blood cells (erythrocytes), read-out: Selectivity Index"}, "Staphylococcus aureus [6]": {"tested_on": "Staphylococcus aureus", "assay": "Antibacterial activity against methicillin-resistant Staphylococcus aureus clinical isolate M-11 assessed as inhibition of visible growth incubated for 16 to 18 hrs by CLSI method", "format": "functional", "conditions": "time 16-18 hrs, read-out: MIC100"}, "Staphylococcus aureus [7]": {"tested_on": "Staphylococcus aureus", "assay": "Antibacterial activity against methicillin-resistant Staphylococcus aureus clinical isolate M-12 assessed as inhibition of visible growth incubated for 16 to 18 hrs by CLSI method", "format": "functional", "conditions": "time 16-18 hrs, read-out: MIC100"}, "Staphylococcus aureus [8]": {"tested_on": "Staphylococcus aureus", "assay": "Antibacterial activity against methicillin-resistant Staphylococcus aureus clinical isolate M-13 assessed as inhibition of visible growth incubated for 16 to 18 hrs by CLSI method", "format": "functional", "conditions": "time 16-18 hrs, read-out: MIC100"}, "Staphylococcus aureus [9]": {"tested_on": "Staphylococcus aureus", "assay": "Antibacterial activity against methicillin-resistant Staphylococcus aureus clinical isolate M-15 assessed as inhibition of visible growth incubated for 16 to 18 hrs by CLSI method", "format": "functional", "conditions": "time 16-18 hrs, read-out: MIC100"}, "Staphylococcus aureus [10]": {"tested_on": "Staphylococcus aureus", "assay": "Antibacterial activity against methicillin-resistant Staphylococcus aureus clinical isolate M-16 assessed as inhibition of visible growth incubated for 16 to 18 hrs by CLSI method", "format": "functional", "conditions": "time 16-18 hrs, read-out: MIC100"}, "Staphylococcus aureus [11]": {"tested_on": "Staphylococcus aureus", "assay": "Antibacterial activity against methicillin-resistant Staphylococcus aureus clinical isolate M-18 assessed as inhibition of visible growth incubated for 16 to 18 hrs by CLSI method", "format": "functional", "conditions": "time 16-18 hrs, read-out: MIC100"}, "Staphylococcus aureus [12]": {"tested_on": "Staphylococcus aureus", "assay": "Antibacterial activity against methicillin-resistant Staphylococcus aureus clinical isolate M-19 assessed as inhibition of visible growth incubated for 16 to 18 hrs by CLSI method", "format": "functional", "conditions": "time 16-18 hrs, read-out: MIC100"}, "Staphylococcus aureus [13]": {"tested_on": "Staphylococcus aureus", "assay": "Bactericidal activity against methicillin-resistant Staphylococcus aureus clinical isolate 16 assessed as reduction in colony formation in early stage at 8 times of MIC measured within 30 mins by time-kill assay", "format": "functional, organism-based"}, "Staphylococcus aureus [14]": {"tested_on": "Staphylococcus aureus", "assay": "Bactericidal activity against methicillin-resistant Staphylococcus aureus clinical isolate 16 assessed as reduction in colony formation in late stage at 8 times of MIC measured within 2 hrs by time-kill assay", "format": "functional, organism-based"}, "Staphylococcus aureus [15]": {"tested_on": "Staphylococcus aureus", "assay": "Bactericidal activity against methicillin-resistant Staphylococcus aureus clinical isolate 16 assessed as reduction in colony formation at 1 times of MIC measured upto 8 hrs by time-kill assay", "format": "functional, organism-based", "conditions": "time hrs <=8"}, "Staphylococcus aureus [16]": {"tested_on": "Staphylococcus aureus", "assay": "Antibacterial activity against […] assessed as fold increase in MIC at sublethal concentration treated over 20 serial passages by resistance development assay", "format": "functional"}, "Staphylococcus aureus [17]": {"tested_on": "Staphylococcus aureus", "assay": "Antibiofilm activity against methicillin-resistant Staphylococcus aureus clinical isolate 16 assessed as decrease in viable bacteria in biofilm at 2 to 64 ug/ml incubated for 16 to 18 hrs by biofilm disruption assay", "format": "functional, organism-based", "conditions": "dose 2-64 µg/ml, time 16-18 hrs"}, "Staphylococcus aureus [18]": {"tested_on": "Staphylococcus aureus", "assay": "Antibiofilm activity against Staphylococcus aureus assessed as decrease in viable bacteria in biofilm at 2 to 64 ug/ml incubated for 16 to 18 hrs by biofilm disruption assay", "format": "functional, organism-based", "conditions": "dose 2-64 µg/ml, time 16-18 hrs"}, "Staphylococcus aureus [19]": {"tested_on": "Staphylococcus aureus", "assay": "Antibiofilm activity against Staphylococcus aureus assessed as reduction in colony forming unit at 64 ug/ml incubated for 16 to 18 hrs by biofilm disruption assay", "format": "functional", "conditions": "dose 64 µg/ml; time 16-18 hrs"}, "Cell membrane [20]": {"tested_on": "Cell membrane", "assay": "Induction of membrane disruption in methicillin-resistant Staphylococcus aureus clinical isolate 16 at 4 to 32 ug/ml measured for 16 mins by DiSC35 dye based fluorescence assay", "format": "subcellular", "conditions": "dose 4-32 µg/ml"}, "Cell membrane [21]": {"tested_on": "Cell membrane", "assay": "Induction of cell membrane permeability in methicillin-resistant Staphylococcus aureus clinical isolate 16 assessed as fluorescent intensity by SYTOX dye based fluorescence assay", "format": "subcellular"}, "Cell membrane [22]": {"tested_on": "Cell membrane", "assay": "Induction of membrane disruption in methicillin-resistant Staphylococcus aureus clinical isolate 16 assessed as increase in blue fluorescence at 10 ug/ml by DAPI staining based confocal laser scanning microscopy", "conditions": "dose 10.0 µg/ml"}, "Cell membrane [23]": {"tested_on": "Cell membrane", "assay": "Induction of membrane disruption in methicillin-resistant Staphylococcus aureus clinical isolate 16 assessed as increase in green fluorescence at 10 ug/ml by SYTOX green staining based confocal laser scanning microscopy", "format": "subcellular", "conditions": "dose 10.0 µg/ml"}, "Cell membrane [24]": {"tested_on": "Cell membrane", "assay": "Induction of membrane morphological changes in methicillin-resistant Staphylococcus aureus clinical isolate 16 assessed as intact and smooth surface at 10 ug/ml by scanning electron microscopy", "format": "subcellular", "conditions": "dose 10.0 µg/ml"}, "L02": {"tested_on": "L02", "assay": "Cytotoxicity against human LO2 cells assessed as cell morphology at 128 ug/ml incubated for 24 hrs by live/dead staining based fluorescence microscopy", "conditions": "l02, 24 h, dose 128 µg/ml"}, "[25]": {"assay": "Toxicity in BALB/c mouse assessed as abnormalities and pathological changes in liver at 25 mg/kg, sc once a day for 3 days by H and E staining based assay", "format": "organism-based", "conditions": "in vivo, 72 h, time 3 day"}, "[26]": {"assay": "Toxicity in BALB/c mouse assessed as abnormalities and pathological changes in kidney at 25 mg/kg, sc once a day for 3 days by H and E staining based assay", "format": "organism-based", "conditions": "in vivo, 72 h, time 3 day"}, "Staphylococcus aureus [27]": {"tested_on": "Staphylococcus aureus", "assay": "Antibacterial activity against methicillin-resistant Staphylococcus aureus clinical isolate 16 infected in BALB/c mouse assessed as reduction in inflammatory cell inflammation in liver at 25 mg/kg, sc once a day for 3 days by H and E staining based assay", "format": "functional, organism-based", "conditions": "time 3.0 day"}, "Staphylococcus aureus [28]": {"tested_on": "Staphylococcus aureus", "assay": "Antibacterial activity against methicillin-resistant Staphylococcus aureus clinical isolate 16 infected in BALB/c mouse assessed as reduction in inflammatory cell inflammation in kidney at 25 mg/kg, sc once a day for 3 days by H and E staining based assay", "format": "functional, organism-based", "conditions": "time 3.0 day"}, "Staphylococcus aureus [29]": {"tested_on": "Staphylococcus aureus", "assay": "Antibacterial activity against methicillin-resistant Staphylococcus aureus clinical isolate 16 infected in BALB/c mouse assessed as reduction in bacterial load in liver at 25 mg/kg, sc once a day for 3 days by H and E staining based assay", "format": "functional, organism-based", "conditions": "time 3.0 day"}, "Staphylococcus aureus [30]": {"tested_on": "Staphylococcus aureus", "assay": "Antibacterial activity against methicillin-resistant Staphylococcus aureus clinical isolate 16 infected in BALB/c mouse assessed as reduction in bacterial load in spleen at 25 mg/kg, sc once a day for 3 days by H and E staining based assay", "format": "functional, organism-based", "conditions": "time 3.0 day"}, "Staphylococcus aureus [31]": {"tested_on": "Staphylococcus aureus", "assay": "Antibacterial activity against methicillin-resistant Staphylococcus aureus clinical isolate 16 infected in BALB/c mouse assessed as reduction in bacterial load in kidney at 25 mg/kg, sc once a day for 3 days by H and E staining based assay", "format": "functional, organism-based", "conditions": "time 3.0 day"}}, "note": "Calls of active or inactive are those of the source. No cut-off for these calls is given here."}
{"smiles": "C=CCc1ccc(OCCC[N+](C)(C)CC(=O)NCCCC)c(-c2ccc(OCCC[N+](C)(C)CC(=O)NCCCC)c(CC=C)c2)c1.[Br-].[Br-]", "values": [{"measurement": "MIC", "setting": "Enterococcus faecalis", "value": 2, "unit": "µg/mL"}, {"measurement": "MIC", "setting": "Bacillus subtilis", "value": 1, "unit": "µg/mL"}, {"measurement": "MIC", "setting": "Micrococcus luteus", "value": 2, "unit": "µg/mL"}, {"measurement": "MIC", "setting": "Escherichia coli", "value": 4, "unit": "µg/mL"}, {"measurement": "MIC", "setting": "[1]", "value": 8, "unit": "µg/mL"}, {"measurement": "MIC", "setting": "Salmonella enterica [2]", "value": 8, "unit": "µg/mL"}, {"measurement": "MIC", "setting": "Salmonella enterica [3]", "value": 4, "unit": "µg/mL"}, {"measurement": "HC50 at 1 h", "setting": "[4]", "value": 789, "unit": "µg/mL"}, {"measurement": "selectivity ratio", "setting": "[5]", "value": 789}, {"measurement": "MIC", "setting": "Staphylococcus aureus [6]", "value": 1, "unit": "µg/mL"}, {"measurement": "MIC", "setting": "Staphylococcus aureus [7]", "value": 0.5, "unit": "µg/mL"}, {"measurement": "MIC", "setting": "Staphylococcus aureus [8]", "value": 1, "unit": "µg/mL"}, {"measurement": "MIC", "setting": "Staphylococcus aureus [9]", "value": 0.5, "unit": "µg/mL"}, {"measurement": "MIC", "setting": "Staphylococcus aureus [10]", "value": 1, "unit": "µg/mL"}, {"measurement": "MIC", "setting": "Staphylococcus aureus [11]", "value": 0.5, "unit": "µg/mL"}, {"measurement": "MIC", "setting": "Staphylococcus aureus [12]", "value": 3, "unit": "µg/mL"}, {"measurement": "Activity", "setting": "Staphylococcus aureus [13]", "value": "Active"}, {"measurement": "Activity", "setting": "Staphylococcus aureus [14]", "value": "Active"}, {"measurement": "Activity", "setting": "Staphylococcus aureus [15]", "value": "Active"}, {"measurement": "fold change (FC)", "setting": "Staphylococcus aureus [16]", "value": 128}, {"measurement": "Activity", "setting": "Staphylococcus aureus [17]", "value": "Active"}, {"measurement": "Activity", "setting": "Staphylococcus aureus [18]", "value": "Active"}, {"measurement": "Activity", "setting": "Staphylococcus aureus [19]", "value": 3.8, "unit": "log10CFU/ml"}, {"measurement": "Activity", "setting": "Cell membrane [20]", "value": "Active"}, {"measurement": "Activity", "setting": "Cell membrane [21]", "value": "Dose-Dependent Effect"}, {"measurement": "Activity", "setting": "Cell membrane [22]", "value": "Dose-Dependent Effect"}, {"measurement": "Activity", "setting": "Cell membrane [23]", "value": "Active"}, {"measurement": "Activity", "setting": "Cell membrane [24]", "value": "Active"}, {"measurement": "Activity", "setting": "L02", "value": "Non-Toxic"}, {"measurement": "Activity", "setting": "[25]", "value": "Non-Toxic"}, {"measurement": "Activity", "setting": "[26]", "value": "Non-Toxic"}, {"measurement": "Activity", "setting": "Staphylococcus aureus [27]", "value": "Active"}, {"measurement": "Activity", "setting": "Staphylococcus aureus [28]", "value": "Active"}, {"measurement": "Activity", "setting": "Staphylococcus aureus [29]", "value": "Active"}, {"measurement": "Activity", "setting": "Staphylococcus aureus [30]", "value": "Active"}, {"measurement": "Activity", "setting": "Staphylococcus aureus [31]", "value": "Active"}]}
